pIC50: −log10 of the molar value.

This note sets out measurements from ChEMBL document CHEMBL3352784, “Investigation of Cardiovascular Effects of Tetrahydro-β-carboline sstr3 antagonists” (ACS Med Chem Lett, 2014).

Data set [1] addresses T1, Somatostatin receptor type 3 (Homo sapiens, UniProt P32745).
Description: Antagonist activity at human SSTR3 expressed in CHO cells assessed as cAMP level by fluorescence analysis
Data set [2] addresses T1, Somatostatin receptor type 3. Put plainly: biochemical.
Description: Displacement of [125I]SS-14 from human SSTR3 expressed in CHO cells by TopCount analyzer
The target in data set [3] is T2, Somatostatin receptor type 3 (Mus musculus, UniProt P30935). Put plainly: Antagonist activity at mouse SSTR3 expressed in CHO cells assessed as cAMP level by fluorescence analysis. Format: functional, cell-based. Background: cAMP levels reflect the balance of adenylyl cyclase and phosphodiesterase activity.
T2 sequence (P30935 whole entry): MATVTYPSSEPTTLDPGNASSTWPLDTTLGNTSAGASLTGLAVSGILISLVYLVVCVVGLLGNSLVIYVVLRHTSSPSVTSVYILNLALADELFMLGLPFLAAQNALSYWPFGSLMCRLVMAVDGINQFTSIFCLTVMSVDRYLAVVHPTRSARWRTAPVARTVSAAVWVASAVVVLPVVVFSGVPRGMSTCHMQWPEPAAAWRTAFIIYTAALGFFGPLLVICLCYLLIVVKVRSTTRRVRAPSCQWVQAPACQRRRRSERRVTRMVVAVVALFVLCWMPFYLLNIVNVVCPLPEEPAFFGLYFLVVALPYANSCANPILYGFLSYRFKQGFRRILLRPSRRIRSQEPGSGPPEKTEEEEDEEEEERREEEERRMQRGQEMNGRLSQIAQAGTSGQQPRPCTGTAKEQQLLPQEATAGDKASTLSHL
Data set [4] has as its target Somatostatin receptor type 3 (Mus musculus) (UniProt P30935). Nature of the data set: Antagonist activity at mouse SSTR3 expressed in CHO cells assessed as cAMP level by fluorescence analysis relative to control. It is filed as functional, cell-based. Set-up: concentration or dose not given beside the values. The conditions noted are these: concentration not given here.

For data set [5], the target named is T2, Somatostatin receptor type 3. Format: cell-based, CHO.
Data set [6] addresses Voltage-gated inwardly rectifying potassium channel KCNH2 (Homo sapiens, UniProt Q12809).
Description: Inhibition of human ERG by MK-499 displacement binding analysis
In data set [7] the test system is Mus musculus. Nature of the data set: Antidiabetic activity in C57BL/6 mouse assessed as reduction in glucose excursion at 10 mg/kg, po by oGTT assay relative to MK-4256. Format: functional.
The subject of data set [8] is Mus musculus. Nature of the data set: Antidiabetic activity in C57BL/6 mouse assessed as reduction in glucose excursion at 1 mg/kg, ip by oGTT assay relative to MK-4256. The conditions noted are these: C57BL/6, ip, route intraperitoneal. Format: functional.
Data set [9] in a line: in vivo. The following applies: dog, iv, 50 mg/kg.
For data set [10], the target named is Somatostatin receptor type 1 (Homo sapiens, UniProt P30872). Format: cell-based, CHO.
Chain of Somatostatin receptor type 1 (P30872 whole entry): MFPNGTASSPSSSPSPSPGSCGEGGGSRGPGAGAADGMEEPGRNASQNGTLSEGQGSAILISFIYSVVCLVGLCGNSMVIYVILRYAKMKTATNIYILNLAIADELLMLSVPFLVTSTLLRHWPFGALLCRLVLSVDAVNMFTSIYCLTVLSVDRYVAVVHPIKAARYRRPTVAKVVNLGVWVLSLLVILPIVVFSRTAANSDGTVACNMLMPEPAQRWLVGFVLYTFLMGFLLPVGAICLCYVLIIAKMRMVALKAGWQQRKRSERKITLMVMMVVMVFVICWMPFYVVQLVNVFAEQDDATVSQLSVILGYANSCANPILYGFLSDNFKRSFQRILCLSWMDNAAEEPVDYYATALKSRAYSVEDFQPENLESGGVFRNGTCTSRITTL
For data set [11], the target named is Somatostatin receptor type 5 (Homo sapiens, UniProt P35346). Format: cell-based, CHO.
Chain of Somatostatin receptor type 5 (P35346 whole entry): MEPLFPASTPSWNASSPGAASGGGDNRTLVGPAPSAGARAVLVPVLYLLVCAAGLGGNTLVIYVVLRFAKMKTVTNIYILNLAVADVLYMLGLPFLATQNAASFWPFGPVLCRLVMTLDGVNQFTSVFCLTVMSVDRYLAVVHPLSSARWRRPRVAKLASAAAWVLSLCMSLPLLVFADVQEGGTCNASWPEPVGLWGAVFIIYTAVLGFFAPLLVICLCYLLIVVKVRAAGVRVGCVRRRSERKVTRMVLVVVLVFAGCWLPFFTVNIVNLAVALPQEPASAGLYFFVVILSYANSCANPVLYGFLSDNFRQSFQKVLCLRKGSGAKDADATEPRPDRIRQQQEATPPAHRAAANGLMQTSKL
The nature of data set [12]: Clearance in mouse. Format: ADME, organism-based. The following applies: in vivo.
Data set [13] has as its target Somatostatin receptor type 2 (Homo sapiens, UniProt P30874). Format: cell-based, CHO.
Data set [14] is described as follows: Half life in mouse. It is filed as ADME, organism-based. The following applies: in vivo.
The nature of data set [15]: Plasma concentration in C57BL/6 mouse at 10 mg/kg, po after 2.5 hrs. Format: ADME, organism-based. Set-up: dose 10 mg/kg, route oral.
In a further data set the test system is Canis familiaris. Put plainly: Toxicity in anesthetized vagus-intact cardiovascular dog model assessed as QTc interval prolongation at 909 uM plasma concentration. Format: organism-based, Canis lupus familiaris.
Data set [16] is described as follows: Plasma concentration in C57BL/6 mouse at 1 mg/kg, ip after 2.5 hrs. Format: ADME, organism-based. Set-up: dose 1 mg/kg, route intraperitoneal.
Data set [17] is described as follows: in vivo. The conditions noted are these: dog, iv, 10 mg/kg.
Data set [18] can be described thus: Plasma concentration in C57BL/6 mouse at 3 mg/kg, po after 2.5 hrs. It is filed as ADME, organism-based. Also on record: dose 3 mg/kg, route oral.
Data set [19] addresses Somatostatin receptor type 4 (Homo sapiens, UniProt P31391). It is filed as cell-based, CHO.
Data set [20] relates to Mus musculus. Put plainly: Antidiabetic activity in C57BL/6 mouse assessed as reduction in glucose excursion at 3 mg/kg, po by oGTT assay relative to MK-4256. It is filed as functional.
Data set [21] is described as follows: Oral bioavailability in mouse. It is filed as ADME, organism-based. The following applies: in vivo.
Data set [22] relates to Mus musculus. Nature of the data set: Antidiabetic activity in C57BL/6 mouse assessed as reduction in glucose excursion at 3 mg/kg, po by oGTT assay relative to control. Format: functional. The following applies: C57BL/6, read-out: INH.
Data set [23] can be described thus: in vivo. The following applies: dog, iv, 20 mg/kg.

T1 sequence (P32745 whole entry): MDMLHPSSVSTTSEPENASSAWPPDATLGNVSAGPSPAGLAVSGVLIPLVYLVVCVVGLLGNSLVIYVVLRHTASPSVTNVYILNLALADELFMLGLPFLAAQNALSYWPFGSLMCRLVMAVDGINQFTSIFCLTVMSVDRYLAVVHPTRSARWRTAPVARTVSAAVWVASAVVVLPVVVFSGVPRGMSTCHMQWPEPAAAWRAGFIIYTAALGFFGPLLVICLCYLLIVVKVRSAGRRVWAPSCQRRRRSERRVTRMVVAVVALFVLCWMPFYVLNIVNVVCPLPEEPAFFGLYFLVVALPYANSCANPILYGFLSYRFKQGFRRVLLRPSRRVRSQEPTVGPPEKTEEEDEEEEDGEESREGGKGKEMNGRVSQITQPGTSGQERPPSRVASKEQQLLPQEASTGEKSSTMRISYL
Chain of Somatostatin receptor type 3 (Mus musculus) (P30935 whole entry): as the sequence (P30935 whole entry) above
Chain of Voltage-gated inwardly rectifying potassium channel KCNH2 (Q12809 whole entry): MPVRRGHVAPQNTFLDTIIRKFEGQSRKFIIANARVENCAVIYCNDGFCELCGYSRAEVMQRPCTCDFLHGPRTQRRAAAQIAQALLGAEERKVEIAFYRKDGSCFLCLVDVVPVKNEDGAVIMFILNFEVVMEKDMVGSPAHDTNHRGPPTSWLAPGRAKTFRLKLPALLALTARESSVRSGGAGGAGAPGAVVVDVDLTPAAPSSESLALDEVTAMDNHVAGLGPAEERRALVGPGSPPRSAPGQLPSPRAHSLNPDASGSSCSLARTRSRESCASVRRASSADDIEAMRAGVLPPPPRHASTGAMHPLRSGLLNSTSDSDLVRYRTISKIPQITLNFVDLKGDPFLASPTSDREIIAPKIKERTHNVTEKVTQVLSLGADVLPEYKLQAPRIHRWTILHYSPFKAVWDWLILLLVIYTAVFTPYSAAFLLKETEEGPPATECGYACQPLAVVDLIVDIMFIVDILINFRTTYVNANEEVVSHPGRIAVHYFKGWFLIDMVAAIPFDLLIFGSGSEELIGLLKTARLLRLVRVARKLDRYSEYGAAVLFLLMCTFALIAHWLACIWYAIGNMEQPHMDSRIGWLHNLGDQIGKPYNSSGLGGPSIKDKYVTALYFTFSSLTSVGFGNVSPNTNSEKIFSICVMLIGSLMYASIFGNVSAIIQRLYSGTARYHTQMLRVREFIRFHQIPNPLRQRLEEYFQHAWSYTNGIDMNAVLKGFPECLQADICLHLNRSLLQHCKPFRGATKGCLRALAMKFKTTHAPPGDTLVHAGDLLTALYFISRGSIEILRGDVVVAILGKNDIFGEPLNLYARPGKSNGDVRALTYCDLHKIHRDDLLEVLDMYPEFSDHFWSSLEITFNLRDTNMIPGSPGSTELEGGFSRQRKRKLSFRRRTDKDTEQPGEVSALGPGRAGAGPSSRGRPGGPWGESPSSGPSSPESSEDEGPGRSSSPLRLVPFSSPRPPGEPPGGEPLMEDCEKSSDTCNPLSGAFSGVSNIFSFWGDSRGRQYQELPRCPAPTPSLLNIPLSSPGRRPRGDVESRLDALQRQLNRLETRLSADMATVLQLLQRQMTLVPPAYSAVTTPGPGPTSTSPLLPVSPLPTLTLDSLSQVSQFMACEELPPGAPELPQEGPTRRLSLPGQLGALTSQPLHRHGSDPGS
Chain of Somatostatin receptor type 4 (P31391 whole entry): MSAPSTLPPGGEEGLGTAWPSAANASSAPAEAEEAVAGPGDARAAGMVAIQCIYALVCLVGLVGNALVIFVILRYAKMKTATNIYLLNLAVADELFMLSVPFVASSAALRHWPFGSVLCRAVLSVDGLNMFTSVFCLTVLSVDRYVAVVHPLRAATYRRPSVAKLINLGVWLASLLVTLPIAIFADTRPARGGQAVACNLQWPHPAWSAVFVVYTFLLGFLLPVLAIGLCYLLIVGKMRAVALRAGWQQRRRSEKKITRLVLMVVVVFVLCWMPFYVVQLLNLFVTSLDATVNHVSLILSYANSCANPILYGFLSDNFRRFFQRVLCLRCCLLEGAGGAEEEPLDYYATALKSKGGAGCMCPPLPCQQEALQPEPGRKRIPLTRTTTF
Chain of Somatostatin receptor type 2 (P30874 whole entry): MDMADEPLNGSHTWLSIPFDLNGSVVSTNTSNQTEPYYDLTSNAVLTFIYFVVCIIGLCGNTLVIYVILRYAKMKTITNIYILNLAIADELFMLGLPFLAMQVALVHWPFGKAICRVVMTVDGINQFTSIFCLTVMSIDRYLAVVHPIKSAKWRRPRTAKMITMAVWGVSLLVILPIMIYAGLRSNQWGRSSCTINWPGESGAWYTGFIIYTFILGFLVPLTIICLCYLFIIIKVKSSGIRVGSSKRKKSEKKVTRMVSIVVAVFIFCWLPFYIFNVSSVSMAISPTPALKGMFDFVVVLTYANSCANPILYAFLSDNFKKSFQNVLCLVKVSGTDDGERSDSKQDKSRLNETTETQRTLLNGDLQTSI

The pIC50 is the negative decadic logarithm of the IC50, by convention in mol/L. Take `CCOC(=O)c1ccc(C2(c3cnn(C)c3)N[C@@H](c3nc(-c4ccc(F)cc4)c[nH]3)Cc3c2[nH]c2ccccc32)nc1` (single isomer, unassigned; 9B) [listing 1 of 2 here]: the values for the negative-log IC50 (pIC50) in data set [1], in data set [2] and in data set [3] were 7.50, 8.54 and 7.85, respectively.
One may read the inhibition as the change of the read-out against control, counted positive when it falls. As for `Cn1cc(C2(c3cccc(C(=O)O)n3)N[C@@H](c3nc(-c4ccc(F)cc4)c[nH]3)Cc3c2[nH]c2ccccc32)cn1` (single isomer, unassigned; 2A) [listing 1 of 2 here], the inhibition in data set [4] is 101%.
With `CCOC(=O)c1cccc(C2(c3cnn(C)c3)N[C@@H](c3nc(-c4ccc(F)cc4)c[nH]3)Cc3c2[nH]c2ccccc32)n1` (single isomer, unassigned; 6B) [listing 1 of 2 here], in data set [4], the inhibition came to 87%.
Still for that read-out and setting: then `Cn1cc(C2(c3ccc(C(=O)O)cn3)N[C@@H](c3nc(-c4ccc(F)cc4)c[nH]3)Cc3c2[nH]c2ccccc32)cn1` (single isomer, unassigned; 5A) [listing 1 of 2 here], with 87%.
In the case of `Cn1cc(C2(c3cc(C(=O)O)ccn3)N[C@@H](c3nc(-c4ccc(F)cc4)c[nH]3)Cc3c2[nH]c2ccccc32)cn1` (single isomer, unassigned; 3B) [listing 1 of 2 here], in [4], the inhibition is 70%.
Take `CCOC(=O)c1ccnc([C@@]2(c3cnn(C)c3)N[C@@H](c3nc(-c4ccc(F)cc4)c[nH]3)Cc3c2[nH]c2ccccc32)c1`: the figures for the negative-log IC50 (pIC50) in data set [1], in [2] and in data set [3] were 7.33, 8.31 and 7.83, respectively. The inhibition in data set [4] amounted to 85%.
As for `Cn1cc(C2(c3ccc(C(=O)O)cn3)N[C@@H](c3nc(-c4ccc(F)cc4)c[nH]3)Cc3c2[nH]c2ccccc32)cn1` (single isomer, unassigned; 5B) [listing 1 of 2 here], the pIC50 in [3] was 5.73.
With `CCOC(=O)c1ccc(C2(c3cnn(C)c3)N[C@@H](c3nc(-c4ccc(F)cc4)c[nH]3)Cc3c2[nH]c2ccccc32)nc1` (single isomer, unassigned; 9A) [listing 1 of 2 here], the inhibition in data set [4] was found to be 96%.
Turning to `Cn1cc(C2(c3cccc(C(=O)O)n3)N[C@@H](c3nc(-c4ccc(F)cc4)c[nH]3)Cc3c2[nH]c2ccccc32)cn1` (single isomer, unassigned; 2B) [listing 1 of 2 here], the pIC50 in data set [1] was 6.98; in data set [2] it was 7.13; in data set [3], 6.95.
For `CCOC(=O)c1ccc(C2(c3cnn(C)c3)N[C@@H](c3nc(-c4ccc(F)cc4)c[nH]3)Cc3c2[nH]c2ccccc32)nc1` (single isomer, unassigned; 9B) [listing 2 of 2 here], the inhibition in data set [4] was found to be 66%.
Regarding `CCOC(=O)c1ccc(C2(c3cnn(C)c3)N[C@@H](c3nc(-c4ccc(F)cc4)c[nH]3)Cc3c2[nH]c2ccccc32)nc1` (single isomer, unassigned; 9A) [listing 2 of 2 here], the negative-log IC50 (pIC50) in data set [1] is 8.28; in [2], 8.76; in data set [3], 8.82.
`CCOC(=O)c1ccnc(C2(c3cnn(C)c3)N[C@@H](c3nc(-c4ccc(F)cc4)c[nH]3)Cc3c2[nH]c2ccccc32)c1` (single isomer, unassigned): the pIC50 in [1] is 9.11; in data set [2], 9.19; in data set [3], 9.44; in [5] it was 9.39. For the same compound, the inhibition in data set [4] was determined as 91%.
Regarding `CCOC(=O)c1cccc(C2(c3cnn(C)c3)N[C@@H](c3nc(-c4ccc(F)cc4)c[nH]3)Cc3c2[nH]c2ccccc32)n1` (single isomer, unassigned; 6A) [listing 1 of 2 here], the pIC50 in data set [1] was 8.71; in data set [2] it was 9.08; in data set [3] it was 9.24; in data set [5], 9.39.
As to `Cn1cc(C2(c3ccc(C(=O)O)cn3)N[C@@H](c3nc(-c4ccc(F)cc4)c[nH]3)Cc3c2[nH]c2ccccc32)cn1` (single isomer, unassigned; 5B) [listing 2 of 2 here], the inhibition in data set [4] was determined as 51%.
For `CCOC(=O)c1cncc([C@@]2(c3cnn(C)c3)N[C@@H](c3nc(-c4ccc(F)cc4)c[nH]3)Cc3c2[nH]c2ccccc32)c1`, the pIC50 is 7.62 in data set [1], 5.60 in data set [6], 8.47 in data set [2] and 8.08 in data set [3]. The inhibition in [4] was found to be 107%.
Consider `Cn1cc([C@]2(c3cncc(C(=O)O)c3)N[C@@H](c3nc(-c4ccc(F)cc4)c[nH]3)Cc3c2[nH]c2ccccc32)cn1`, for which the values for the pIC50 in [1], in [2] and in data set [3] were 8.21, 7.97 and 8.54, respectively. Also, the inhibition in data set [4] turned out to be 80%.
On to `Cn1cc(C2(c3cc(C(=O)O)ccn3)N[C@@H](c3nc(-c4ccc(F)cc4)c[nH]3)Cc3c2[nH]c2ccccc32)cn1` (single isomer, unassigned; 3B) [listing 2 of 2 here], for which the negative-log IC50 (pIC50) in data set [1] was 7.28; in data set [2], 7.14; in data set [3], 7.77.
Consider `Cn1cc([C@@]2(c3cncc(C(=O)O)c3)N[C@@H](c3nc(-c4ccc(F)cc4)c[nH]3)Cc3c2[nH]c2ccccc32)cn1`, for which the pIC50 in data set [1] was 9.28; in data set [2] it was 8.91; in data set [3], 9.80. Moreover, the inhibition in data set [4] turned out to be 67%.
By Cmax is commonly meant the highest concentration seen after dosing. Broadly, the clearance is the volume of plasma or blood freed of the substance per unit of time. By half-life is commonly meant how long it takes for the measured level to halve. As usually defined, the bioavailability is the share of a dose that reaches the circulation, judged against a reference dose that is usually intravenous. In the case of `Cn1cc(C2(c3cc(C(=O)O)ccn3)N[C@@H](c3nc(-c4ccc(F)cc4)c[nH]3)Cc3c2[nH]c2ccccc32)cn1` (single isomer, unassigned; 3A) [listing 1 of 2 here], the inhibition in vivo at 10 mg/kg in the data set with Mus musculus [7] was 35%. The pIC50 in [1] is 8.77; in data set [10] it was under 5.00; in data set [11] it was under 5.00; in data set [13], under 5.00; in data set [2], 8.67; in data set [3], 9.14. For the same compound, the pIC50 in data set [19] is under 5.00; in [5] it was 8.76. Moreover, in the data set on Mus musculus [8], the inhibition in vivo at 1 mg/kg amounted to 64%. In addition, the figures for the Cmax at 0.5 h in the data set “in vivo [9]”, in the data set “in vivo [17]” and in “in vivo [23]” were 909 µM, 38 µM and 199 µM, respectively. The same compound came in with a clearance in [12] of 15.6 mL/min/kg. The half-life in data set [14] is 2.62 h. The concentration at 2.5 h came out at 0.003 µM in data set [15], 0.074 µM in [16] and 0.002 µM in [18]. Further, in the data set on Canis familiaris, the Activity entry is “Non-toxic”. The inhibition in vivo at 3 mg/kg in the data set with Mus musculus [20] and in the data set with Mus musculus [22] was 24% each time. In data set [21], this compound came in with a bioavailability of 1.5%.
Regarding `Cn1cc(C2(c3cc(C(=O)O)ccn3)N[C@@H](c3nc(-c4ccc(F)cc4)c[nH]3)Cc3c2[nH]c2ccccc32)cn1` (single isomer, unassigned; 3A) [listing 2 of 2 here], the inhibition in data set [4] is 81%.
In the case of `Cn1cc(C2(c3ccc(C(=O)O)cn3)N[C@@H](c3nc(-c4ccc(F)cc4)c[nH]3)Cc3c2[nH]c2ccccc32)cn1` (single isomer, unassigned; 5A) [listing 2 of 2 here], the negative-log IC50 (pIC50) in data set [3] was 7.24.
Consider `Cn1cc(C2(c3cccc(C(=O)O)n3)N[C@@H](c3nc(-c4ccc(F)cc4)c[nH]3)Cc3c2[nH]c2ccccc32)cn1` (single isomer, unassigned; 2B) [listing 2 of 2 here], for which the inhibition in [4] was found to be 69%.
As to `CCOC(=O)c1cncc([C@]2(c3cnn(C)c3)N[C@@H](c3nc(-c4ccc(F)cc4)c[nH]3)Cc3c2[nH]c2ccccc32)c1`, the pIC50 in data set [1] is 9.82; in [6] it was 5.65; in data set [2] it was 9.11; in data set [3], 9.46. Further, the inhibition in data set [4] came out at 99%.
For the compound `Cn1cc(C2(c3cccc(C(=O)O)n3)N[C@@H](c3nc(-c4ccc(F)cc4)c[nH]3)Cc3c2[nH]c2ccccc32)cn1` (single isomer, unassigned; 2A) [listing 2 of 2 here], the pIC50 in data set [1] is 7.17; in data set [2], 8.36; in data set [3], 7.47; in data set [5], 8.41.
For `CCOC(=O)c1cccc(C2(c3cnn(C)c3)N[C@@H](c3nc(-c4ccc(F)cc4)c[nH]3)Cc3c2[nH]c2ccccc32)n1` (single isomer, unassigned; 6B) [listing 2 of 2 here] the same measures were 8.27, 8.82, 8.46 and 9.15.
As for `CCOC(=O)c1cccc(C2(c3cnn(C)c3)N[C@@H](c3nc(-c4ccc(F)cc4)c[nH]3)Cc3c2[nH]c2ccccc32)n1` (single isomer, unassigned; 6A) [listing 2 of 2 here], the inhibition in [4] amounted to 80%.
